Drawing on patent US20220324862A1, “PYRIDOPYRIMIDINONE COMPOUNDS” (Acerand Therapeutics (USA) Limited, priority 2021, published 2022), this text covers IC50 for 17 compounds.

In this test the target is T1, protein-protein interaction between SOS1 and KRAS-G12D (Homo sapiens, UniProt Q07889).
T1 construct: The purified GST-SOS1 catalytic domain (residues 564-1049) was first diluted in assay buffer; made in house; host or cells: E. coli BL21 (DE3) for SOS1; E. coli BL21 carrying a BirA plasmid for KRAS-G12D
T1 sequence (Q07889 564-1049): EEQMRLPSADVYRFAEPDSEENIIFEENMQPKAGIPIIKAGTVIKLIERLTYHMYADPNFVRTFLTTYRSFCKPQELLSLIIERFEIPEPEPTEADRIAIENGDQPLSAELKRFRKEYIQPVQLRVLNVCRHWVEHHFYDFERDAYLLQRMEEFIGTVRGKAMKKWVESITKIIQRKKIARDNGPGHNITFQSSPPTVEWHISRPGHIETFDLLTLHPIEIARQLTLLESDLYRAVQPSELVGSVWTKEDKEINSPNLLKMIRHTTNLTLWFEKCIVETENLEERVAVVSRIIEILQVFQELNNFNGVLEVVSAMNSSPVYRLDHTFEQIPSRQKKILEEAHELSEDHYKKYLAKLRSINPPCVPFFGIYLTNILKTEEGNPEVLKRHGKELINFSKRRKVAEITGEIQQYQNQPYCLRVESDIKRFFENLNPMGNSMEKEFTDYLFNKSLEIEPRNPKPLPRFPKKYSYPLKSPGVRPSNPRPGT
Kind of test: HTRF Based Protein-Protein Interaction Assay. Type of test: binding. The conditions noted are these: HTRF; GST-SOS1 2.5 nM, KRAS-G12D 100 nM, GDP 10 uM; read-out: IC50 value, inhibition of SOS1/KRAS-G12D protein-protein interaction. The source says:
A KRAS-G12D and SOS1 binding/interaction assay was designed to measure the interaction between KRAS-G12D and SOS1 proteins. Utilizing HTRF (Homogeneous Time-Resolved Fluorescence) technology, the assay enabled simple and rapid characterization of compound and protein interaction in a high throughput format. This assay was used to examine potency of the compounds in inhibiting the protein-protein interaction between SOS1 and KRAS-G12D. […] Low IC50 values are indicative of high potency of the SOS1 inhibitor compound to disrupt SOS1 and Kras-G12D interaction.
Protein Expression and Purification. The corresponding gene sequence to human SOS1 (residues 564-1049, UniProt ID: Q07889; SEQ ID NO: 2) was synthesized and fused in frame with GST expression vector. After the desired sequence was confirmed, plasmid containing the sequence was transformed into the E. coli strain BL21 (DE3). Bacteria were growing at 37° C. in LB media containing 50 μg/ml Kanamycin to give OD600 of 0.6-0.8. Then 0.2 mM IPTG was added to induce protein expression for 16 hours at 17° C. Bacteria were harvested by centrifugation and stored at −80° C. Bacteria pellets were resuspended in lysis buffer (25 mM Tris-HCl, 500 mM NaCl, 2 mM DTT, 2.3% sucrose, 0.3% dextran-10, 1 mM PMSF, pH 7.5) and lysed using high-pressure homogenizer. The lysate was cleared by centrifugation for 30 minutes (12000 rpm at 4° C.). The supernatant containing GST-SOS1 fragment was purified sequentially through Glutathione column and gel filtration (Hiload 16/600 Superdex […] column, Cytiva). The purified GST-SOS1 fragment was confirmed by SDS-PAGE and stored in 25 mM Tris-HCl, 100 mM NaCl, 1 mM DTT, 2.3% sucrose, 0.3% dextran-10, pH 7.5 at −80° C.
Kras-G12D Protein Purification. The sequence corresponding to human KRAS-G12D (residues 1-169, UniProt P01116-2; SEQ ID NO: 1) was synthesized and fused in frame with His-AVI-TEV vector. The plasmid was transformed into the E. coli strain BL21 (containing a plasmid that can generate BirA enzyme). Bacteria were growing at 37° C. in TB media containing 100 μg/ml ampicillin and 50 μg/ml Kanamycin to give OD600 of 0.6-0.8. The 0.5 mM IPTG and 50 mg/l biotin were added to induce protein expression for 16 hours at 25° C. Bacteria were harvested by centrifugation and stored at −80° C. Bacteria pellets were re-suspended in lysis buffer (20 mM Tris-HCl, 500 mM NaCl, 5 mM MgCl2, 2 mM […], 5% glycerol, pH 8.0) and lysed using high-pressure homogenizer. The lysate was cleared by centrifugation for 30 minutes (12000 rpm at 4° C.). The supernatant containing HIS-AVI-TEV-KRAS-G12D fragment was purified sequentially through Ni-NTA column (SMART), Streptactin column (SMART), and gel filtration (Hiload 16/600 Superdex 75 pg, GE). The purified HIS-AVI-TEV-KRAS-G12D fragment was confirmed by SDS-PAGE and stored in 50 mM HEPES-NaOH, 100 mM NaCl, 1 mM DTT, 5 mM MgCl2, pH 7.5 at −80° C.
Protein-Protein Interaction Assay. An assay buffer containing 50 mM HEPES, pH 7.5, 50 mM NaCl, 0.01% Brij-35, 1 mM TCEP, 0.1% BSA was prepared, and concentration series of test compounds were generated spanning from 0.5 nM to 10 μM over 10 3-fold serial dilutions in a 384-well assay plate at a volume of 20 pL. The purified GST-SOS1 catalytic domain (residues 564-1049) was first diluted in assay buffer and 5 μl of SOS1 (final concentration 2.5 nM in assay mixture) was directly dispensed into compound plates. After a spin down at 1000 RPM for 30 seconds, the SOS1/compound mixture was incubated at 25° C. for 15 minutes to allow the reaction between SOS1 and the compound. A KRAS-G12D mixture was prepared by incubation of avi-tagged Kras-G12D (residue 1-169) and GDP in assay buffer containing 10 mM MgCl2 at room temperature for 10 minutes. A KRAS-G12D and GDP mixture (5 μL) was added to the assay plate (final KRAS-G12D was 100 nM and GDP was 10 uM). The plate was centrifuged at 1000 rpm for 30 sec and incubated at 25° C. for 60 minutes. […]
A general note: TR-FRET usually uses a lanthanide donor and a delayed reading to cut background.
As for `C#C[C@@H](Nc1nc(C)nc2cc(=O)n(C3(C)CC3)cc12)c1cccc2c1CCC2(F)F` [Compound 23, (R)-4-((1-(1,1-difluoro-2,3-dihydro-1H-inden-4-yl)prop-2-yn-1-yl)amino)-2-methyl-6-(1-methylcyclopropyl)pyrido[4,3-d]pyrimidin-7(6H)-one], the IC50 is less than 0.1 µM. In the case of `C#C[C@@H](Nc1nc(C)nc2cc(=O)n(C3(C)CCOC3)cc12)c1cccc(C(F)(F)F)c1C` (stereo partly drawn) [Compound 7, 2-methyl-4-(((R)-1-(2-methyl-3-(trifluoromethyl)phenyl)prop-2-yn-1-yl)amino)-6-(3-methyltetrahydrofuran-3-yl)pyrido[4,3-d]pyrimidin-7(6H)-one], the IC50 was less than 0.1 µM. Consider `C#C[C@@H](Nc1nc(C)nc2c(Br)c(=O)n(C3(C(F)F)CC3)cc12)c1cccc(C(F)F)c1C` [Compound 39, (R)-8-bromo-4-((1-(3-(difluoromethyl)-2-methylphenyl)prop-2-yn-1-yl)amino)-6-(1-(difluoromethyl)cyclopropyl)-2-methylpyrido[4,3-d]pyrimidin-7(6H)-one], for which the IC50 was less than 0.1 µM.

On to `C#C[C@@H](Nc1nc(C)nc2cc(=O)n(C3(C(F)F)CC3)cc12)c1cccc(C(C)(F)F)c1F` [Compound 25, (R)-4-((1-(3-(1,1-difluoroethyl)-2-fluorophenyl)prop-2-yn-1-yl)amino)-6-(1-(difluoromethyl)cyclopropyl)-2-methylpyrido[4,3-d]pyrimidin-7(6H)-one], for which the IC50 is less than 0.1 µM. With `C#C[C@@H](Nc1nc(C)nc2cc(=O)n(C3(C)CCOC3)cc12)c1cccc(C(F)F)c1C` (mixture of isomers) [Compound 13, 4-(((R)-1-(3-(difluoromethyl)-2-methylphenyl)prop-2-yn-1-yl)amino)-2-methyl-6-(3-methyltetrahydrofuran-3-yl)pyrido[4,3-d]pyrimidin-7(6H)-one], the IC50 is less than 0.1 µM. With `C#C[C@@H](Nc1ncnc2cc(=O)n(C3(C(F)F)CC3)cc12)c1cccc(C(F)F)c1C` [Compound 40, (R)-4-((1-(3-(difluoromethyl)-2-methylphenyl)prop-2-yn-1-yl)amino)-6-(1-(difluoromethyl)cyclopropyl)pyrido[4,3-d]pyrimidin-7(6H)-one] the figure was less than 0.1 µM; with `C#C[C@@H](Nc1nc(C)nc2cc(=O)n(C3CC4(CNC4)C3)cc12)c1cccc(C(F)F)c1C` [Compound 37, (R)-4-((1-(3-(difluoromethyl)-2-methylphenyl)prop-2-yn-1-yl)amino)-2-methyl-6-(2-azaspiro[3.3]heptan-6-yl)pyrido[4,3-d]pyrimidin-7(6H)-one], less than 0.1 µM. On to `C#C[C@@H](Nc1nc(C)nc2cc(=O)n(C3(C(F)F)CC3)cc12)c1cccc(Br)c1F` [Compound 41, (R)-4-((1-(3-bromo-2-fluorophenyl)prop-2-yn-1-yl)amino)-6-(1-(difluoromethyl)cyclopropyl)-2-methylpyrido[4,3-d]pyrimidin-7(6H)-one], for which the IC50 lay within 0.1 to 0.2 µM. `C#C[C@@H](Nc1nc(C)nc2c(F)c(=O)n(C3(C(F)F)CC3)cc12)c1cccc(C(F)(F)F)c1C` [Compound 14, (R)-6-(1-(difluoromethyl)cyclopropyl)-8-fluoro-2-methyl-4-((1-(2-methyl-3-(trifluoromethyl)phenyl)prop-2-yn-1-yl)amino)pyrido[4,3-d]pyrimidin-7(6H)-one]: the IC50 is less than 0.1 µM. `C#C[C@@H](Nc1nc(C)nc2cc(=O)n(C3(CF)CC3)cc12)c1cccc(C(F)F)c1F` [Compound 32, (R)-4-((1-(3-(difluoromethyl)-2-fluorophenyl)prop-2-yn-1-yl)amino)-6-(1-(fluoromethyl)cyclopropyl)-2-methylpyrido[4,3-d]pyrimidin-7(6H)-one]: the IC50 is less than 0.1 µM. Regarding `C#C[C@@H](Nc1nc(C)nc2cc(=O)n(N[C@H]3CCOC3)cc12)c1cccc(C(F)F)c1C` [Compound 16, 4-(((R)-1-(3-(difluoromethyl)-2-methylphenyl)prop-2-yn-1-yl)amino)-2-methyl-6-(((S)-tetrahydrofuran-3-yl)amino)pyrido[4,3-d]pyrimidin-7(6H)-one], the IC50 was 0.1 to 0.2 µM.

As for `C#C[C@@H](Nc1nc(C)nc2cc(=O)n(C3(C#C)CC3)cc12)c1cccc(C(F)(F)F)c1C` [Compound 5, (R)-6-(1-ethynylcyclopropyl)-2-methyl-4-((1-(2-methyl-3-(trifluoromethyl)phenyl)prop-2-yn-1-yl)amino)pyrido[4,3-d]pyrimidin-7(6H)-one], the IC50 was less than 0.1 µM.

For `C#C[C@@H](Nc1nc(C)nc2cc(=O)n(C3(C)CC3)cc12)c1cccc2c1OCC2(F)F` [Compound 21, (R)-4-((1-(3,3-difluoro-2,3-dihydrobenzofuran-7-yl)prop-2-yn-1-yl)amino)-2-methyl-6-(1-methylcyclopropyl)pyrido[4,3-d]pyrimidin-7(6H)-one], the IC50 is less than 0.1 µM. Take `C#C[C@@H](Nc1nc(C)nc2cc(=O)n(C3(C)CC3)cc12)c1cccc(C(F)F)c1F` [Compound 20, (R)-4-((1-(3-(difluoromethyl)-2-fluorophenyl)prop-2-yn-1-yl)amino)-2-methyl-6-(1-methylcyclopropyl)pyrido[4,3-d]pyrimidin-7(6H)-one]: the IC50 was less than 0.1 µM. With `C#C[C@@H](Nc1nc(C)nc2c(C)c(=O)n(C3(C)CC3)cc12)c1cccc(C(F)(F)F)c1C` [Compound 28, (R)-2,8-dimethyl-4-((1-(2-methyl-3-(trifluoromethyl)phenyl)prop-2-yn-1-yl)amino)-6-(1-methylcyclopropyl)pyrido[4,3-d]pyrimidin-7(6H)-one], the IC50 was less than 0.1 µM.

As for `C#C[C@@H](Nc1nc(C)nc2cc(=O)n(C3(C(F)F)CC3)cc12)c1cccc(C#N)c1F` [Compound 42, (R)-3-(1-((6-(1-(difluoromethyl)cyclopropyl)-2-methyl-7-oxo-6,7-dihydropyrido[4,3-d]pyrimidin-4-yl)amino)prop-2-yn-1-yl)-2-fluorobenzonitrile], the IC50 is less than 0.1 µM. For the compound `C#C[C@@H](Nc1nc(C)nc2cc(=O)n(C3CCC3)cc12)c1cccc(C(F)(F)F)c1C` [Compound 3, (R)-6-cyclobutyl-2-methyl-4-((1-(2-methyl-3-(trifluoromethyl)phenyl)prop-2-yn-1-yl)amino)pyrido[4,3-d]pyrimidin-7(6H)-one], the IC50 was less than 0.1 µM.
